Experimental findings from US9522914B2, “Azole derivative” (TAISHO PHARMACEUTICAL CO., LTD, priority 2011, dated 2016) are described below.

The term IC50 denotes the concentration that inhibits the measured activity by half. A higher IC50 goes with lower potency.

In the assay the target is Human V1b receptor (Homo sapiens (Human), UniProt P47901). The assay is described as follows: Binding Test for V1b Receptor ([3H]AVP, crude membrane preparation of 293FT cells). As to conditions: inhibition of [3H]AVP binding (0.4 to 1 nmol/L), room temperature, 60 minutes. An outline of the steps: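 Crude membranes from 293FT cells transiently expressing human V1b, incubated with [3H]AVP (0.4 to 1 nmol/L) and compound (0.01 nmol/L–1 μmol/L final) in Tris pH 7.4 with MgCl2 and 0.1% BSA, 60 min at room temperature. Bound label collected by filtration. Nonspecific binding defined with unlabeled AVP; IC50 from dose-response curve.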
Sequence of Human V1b receptor (P47901 whole entry): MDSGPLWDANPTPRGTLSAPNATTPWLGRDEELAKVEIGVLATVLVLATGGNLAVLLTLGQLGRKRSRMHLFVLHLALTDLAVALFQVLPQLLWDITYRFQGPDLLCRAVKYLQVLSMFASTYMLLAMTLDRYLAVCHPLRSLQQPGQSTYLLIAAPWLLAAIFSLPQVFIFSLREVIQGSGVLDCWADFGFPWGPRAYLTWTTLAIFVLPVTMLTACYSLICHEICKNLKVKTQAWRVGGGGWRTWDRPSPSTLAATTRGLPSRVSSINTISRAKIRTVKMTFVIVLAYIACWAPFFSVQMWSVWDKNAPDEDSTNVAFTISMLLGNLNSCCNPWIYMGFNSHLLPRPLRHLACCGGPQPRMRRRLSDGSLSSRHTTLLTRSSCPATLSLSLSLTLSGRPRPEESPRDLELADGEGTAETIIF
In the case of `CC(C)(C)NC(=O)Cc1nn(-c2ccc(CCN3C4CCC3COC4)cn2)c(=O)n1-c1ccc(F)c(Cl)c1` [Example D-33, N-tert-butyl-2-[4-(3-chloro-4-fluorophenyl)-1-{5-[2-(3-oxa-8-azabicyclo[3.2.1]oct-8-yl)ethyl]pyridin-2-yl}-5-oxo-4,5-dihydro-1H-1,2,4-triazol-3-yl]acetamide], the IC50 came to 9.1 nM.
The molecule `CC(C)NC(=O)Cc1nn(-c2ccc(CC(C)N3C4CCC3COC4)cn2)c(=O)n1-c1cccc(Cl)c1` [Example D-34, 2-[4-(3-chlorophenyl)-1-{5-[2-(3-oxa-8-azabicyclo[3.2.1]oct-8-yl)propyl]pyridin-2-yl}-5-oxo-4,5-dihydro-1H-1,2,4-triazol-3-yl]-N-(propan-2-yl)acetamide] showed an IC50 of 3.3 nM.
The value for `CC(C)NC(=O)Cc1nn(-c2ccc(CCN3CCOCC3)cc2)c(=O)n1-c1cccc(C(F)(F)F)c1` [Example D-35, 2-(1-{4-[2-(morpholin-4-yl)ethyl]phenyl}-5-oxo-4-[3-(trifluoromethyl)phenyl]-4,5-dihydro-1H-1,2,4-triazol-3-yl)-N-(propan-2-yl)acetamide] was 18 nM; that for `CC(C)NC(=O)Cc1nn(-c2ccc(CC(C)N3C4CCC3COC4)cc2)c(=O)n1-c1ccc(F)c(Cl)c1` [Example D-36, 2-[4-(3-chloro-4-fluorophenyl)-1-{4-[2-(3-oxa-8-azabicyclo[3.2.1]oct-8-yl)propyl]phenyl}-5-oxo-4,5-dihydro-1H-1,2,4-triazol-3-yl]-N-(propan-2-yl)acetamide] was 0.61 nM.
`COc1cc(-n2c(CC(=O)NC(C)C)nn(-c3ccc(CCN4C5CCC4COC5)cc3)c2=O)ccc1F` [Example D-37, 2-[4-(4-fluoro-3-methoxyphenyl)-1-{4-[2-(3-oxa-8-azabicyclo[3.2.1]oct-8-yl)ethyl]phenyl}-5-oxo-4,5-dihydro-1H-1,2,4-triazol-3-yl]-N-(propan-2-yl)acetamide] yielded an IC50 of 12 nM.
The value for `COc1cc(-n2c(CC(=O)NC(C)C)nn(-c3ccc(CCN4C5CCC4COC5)cn3)c2=O)ccc1F` [Example D-38, 2-[4-(4-fluoro-3-methoxyphenyl)-1-{5-[2-(3-oxa-8-azabicyclo[3.2.1]oct-8-yl)ethyl]pyridin-2-yl}-5-oxo-4,5-dihydro-1H-1,2,4-triazol-3-yl]-N-(propan-2-yl)acetamide] was 10 to 100 nM; that for `COc1cccc(-n2c(CC(=O)NC(C)C)nn(-c3ccc(CCN4C5CCC4COC5)cc3)c2=O)c1` [Example D-39, 2-[4-(3-methoxyphenyl)-1-{4-[2-(3-oxa-8-azabicyclo[3.2.1]oct-8-yl)ethyl]phenyl}-5-oxo-4,5-dihydro-1H-1,2,4-triazol-3-yl]-N-(propan-2-yl)acetamide] was 10 to 100 nM; that for `COc1cccc(-n2c(CC(=O)NC(C)C)nn(-c3ccc(CCN4C5CCC4COC5)cn3)c2=O)c1` [Example D-40, 2-[4-(3-methoxyphenyl)-1-{5-[2-(3-oxa-8-azabicyclo[3.2.1]oct-8-yl)ethyl]pyridin-2-yl}-5-oxo-4,5-dihydro-1H-1,2,4-triazol-3-yl]-N-(propan-2-yl)acetamide] was 100 to 1000 nM.
`COc1cc(-n2c(CC(=O)NC(C)C)nn(-c3ccc(CCN4C5CCC4COC5)c(OC)c3)c2=O)ccc1F` [Example D-41, 2-[4-(4-fluoro-3-methoxyphenyl)-1-{3-methoxy-4-[2-(3-oxa-8-azabicyclo[3.2.1]oct-8-yl)ethyl]phenyl}-5-oxo-4,5-dihydro-1H-1,2,4-triazol-3-yl]-N-(propan-2-yl)acetamide] returned an IC50 of 2.7 nM.
In turn, `COc1cccc(-n2c(CC(=O)NC(C)C)nn(-c3ccc(CCN4C5CCC4COC5)c(OC)c3)c2=O)c1` [Example D-42, 2-[1-{3-methoxy-4-[2-(3-oxa-8-azabicyclo[3.2.1]oct-8-yl)ethyl]phenyl}-4-(3-methoxyphenyl)-5-oxo-4,5-dihydro-1H-1,2,4-triazol-3-yl]-N-(propan-2-yl)acetamide] came in with an IC50 of 7.9 nM.
The molecule `CC(C)NC(=O)Cc1nn(-c2ccc(CCN3CCCC3)cc2)c(=O)n1-c1ccc(F)c(Cl)c1` [Example D-43, 2-[4-(3-chloro-4-fluorophenyl)-5-oxo-1-{4-[2-(pyrrolidin-1-yl)ethyl]phenyl}-4,5-dihydro-H-1,2,4-triazol-3-yl]-N-(propan-2-yl)acetamide] displayed an IC50 of 15 nM.
`CC(C)NC(=O)Cc1nn(-c2ccc(CCN3CCCCC3)cc2)c(=O)n1-c1ccc(F)c(Cl)c1` [Example D-44, 2-[4-(3-chloro-4-fluorophenyl)-5-oxo-1-{4-[2-(piperidin-1-yl)ethyl]phenyl}-4,5-dihydro-1H-1,2,4-triazol-3-yl]-N-(propan-2-yl)acetamide] returned a half-maximal inhibitory concentration (IC50) of 16 nM.
In turn, `CC(C)NC(=O)Cc1nn(-c2ccc(CCN3CCCC3)cc2)c(=O)n1-c1cccc(Cl)c1` [Example D-45, 2-[4-(3-chlorophenyl)-5-oxo-1-{4-[2-(pyrrolidin-1-yl)ethyl]phenyl}-4,5-dihydro-1H-1,2,4-triazol-3-yl]-N-(propan-2-yl)acetamide] returned an IC50 of 10 to 100 nM.
In the case of `CC(C)NC(=O)Cc1nn(-c2ccc(CCN3CCCCC3)cc2)c(=O)n1-c1cccc(Cl)c1` [Example D-46, 2-[4-(3-chlorophenyl)-5-oxo-1-{4-[2-(piperidin-1-yl)ethyl]phenyl}-4,5-dihydro-1H-1,2,4-triazol-3-yl]-N-(propan-2-yl)acetamide], the IC50 fell in the range of 10 to 100 nM.
Regarding `CC(C)NC(=O)Cc1nn(-c2ccc(CCN3CC=CCC3)cc2)c(=O)n1-c1cccc(Cl)c1` [Example D-47, 2-[4-(3-chlorophenyl)-1-{4-[2-(3,6-dihydropyridin-1(2H)-yl)ethyl]phenyl}-5-oxo-4,5-dihydro-1H-1,2,4-triazol-3-yl]-N-(propan-2-yl)acetamide], the IC50 was in the range of 100 to 1000 nM.
The value for `CC(C)NC(=O)Cc1nn(-c2ccc(CCN3CCSCC3)cc2)c(=O)n1-c1cccc(Cl)c1` [Example D-48, 2-[4-(3-chlorophenyl)-5-oxo-1-{4-[2-(thiomorpholin-4-yl)ethyl]phenyl}-4,5-dihydro-1H-1,2,4-triazol-3-yl]-N-(propan-2-yl)acetamide] was 10 to 100 nM.
In turn, `CC1CCN(CCc2ccc(-n3nc(CC(=O)NC(C)C)n(-c4cccc(Cl)c4)c3=O)cc2)CC1` [Example D-49, 2-[4-(3-chlorophenyl)-1-{4-[2-(4-methylpiperidin-1-yl)ethyl]phenyl}-5-oxo-4-,5-dihydro-1H-1,2,4-triazol-3-yl]-N-(propan-2-yl)acetamide] gave an IC50 of 100 to 1000 nM.
In the case of `COC1CCCN(CCc2ccc(-n3nc(CC(=O)NC(C)C)n(-c4cccc(Cl)c4)c3=O)cc2)C1` [Example D-50, 2-[4-(3-chlorophenyl)-1-{4-[2-(3-methoxypiperidin-1-yl)ethyl]phenyl}-5-oxo-4,5-dihydro-1H-1,2,4-triazol-3-yl]-N-(propan-2-yl)acetamide], the 50% inhibitory concentration (IC50) lay in the range of 100 to 1000 nM.
The molecule `CC(C)NC(=O)Cc1nn(-c2ccc(CCN3CCC4CCCCC4C3)cc2)c(=O)n1-c1cccc(Cl)c1` [Example D-51, 2-[4-(3-chlorophenyl)-1-{4-[2-(octahydroisoquinolin-2(1H)-yl)ethyl]phenyl}-5-oxo-4,5-dihydro-1H-1,2,4-triazol-3-yl]-N-(propan-2-yl)acetamide] showed an IC50 of 100 to 1000 nM.
Then `CC(C)NC(=O)Cc1nn(-c2ccc(CCN3C[C@@H](C)O[C@@H](C)C3)cc2)c(=O)n1-c1cccc(Cl)c1` [Example D-52, 2-[4-(3-chlorophenyl)-1-(4-{2-[(2R,6S)-2,6-dimethylmorpholin-4-yl]ethyl}phenyl)-5-oxo-4,5-dihydro-1H-1,2,4-triazol-3-yl]-N-(propan-2-yl)acetamide], with 100 to 1000 nM.
`CC(C)NC(=O)Cc1nn(-c2ccc(CCN3CCOCC3C)cc2)c(=O)n1-c1cccc(Cl)c1` [Example D-53, 2-[4-(3-chlorophenyl)-1-{4-[2-(3-methylmorpholin-4-yl)ethyl]phenyl}-5-oxo-4,5-dihydro-1H-1,2,4-triazol-3-yl]-N-(propan-2-yl)acetamide] displayed an IC50 of 10 to 100 nM.
In turn, `CCC1COCCN1CCc1ccc(-n2nc(CC(=O)NC(C)C)n(-c3cccc(Cl)c3)c2=O)cc1` [Example D-54, 2-[4-(3-chlorophenyl)-1-{4-[2-(3-ethylmorpholin-4-yl)ethyl]phenyl}-5-oxo-4,5-dihydro-1H-1,2,4-triazol-3-yl]-N-(propan-2-yl)acetamide] returned an IC50 of 10 to 100 nM.
In turn, `CC(C)NC(=O)Cc1nn(-c2ccc(CCN3CCC(C)(O)CC3)cc2)c(=O)n1-c1cccc(Cl)c1` [Example D-55, 2-[4-(3-chlorophenyl)-1-{4-[2-(4-hydroxy-4-methylpiperidin-1-yl)ethyl]phenyl}-5-oxo-4,5-dihydro-1H-1,2,4-triazol-3-yl]-N-(propan-2-yl)acetamide] returned an IC50 of 100 to 1000 nM.
Regarding `CC(C)NC(=O)Cc1nn(-c2ccc(CCN3CC4(CCOCC4)C3)cc2)c(=O)n1-c1cccc(Cl)c1` [Example D-56, 2-[4-(3-chlorophenyl)-1-{4-[2-(7-oxa-2-azaspiro[3.5]non-2-yl)ethyl]phenyl}-5-oxo-4,5-dihydro-1H-1,2,4-triazol-3-yl]-N-(propan-2-yl)acetamide], the IC50 is 10 to 100 nM.
Take `CC(C)NC(=O)Cc1nn(-c2ccc(CCN3CCC(F)CC3)cc2)c(=O)n1-c1cccc(Cl)c1` [Example D-57, 2-[4-(3-chlorophenyl)-1-{4-[2-(4-fluoropiperidin-1-yl)ethyl]phenyl}-5-oxo-4,5-dihydro-1H-1,2,4-triazol-3-yl]-N-(propan-2-yl)acetamide]: the IC50 lay in the range of 10 to 100 nM.
With `CC(C)NC(=O)Cc1nn(-c2ccc(CCN3CCC(F)(F)CC3)cc2)c(=O)n1-c1cccc(Cl)c1` [Example D-58, 2-[4-(3-chlorophenyl)-1-{4-[2-(4,4-difluoropiperidin-1-yl)ethyl]phenyl}-5-oxo-4,5-dihydro-1H-1,2,4-triazol-3-yl]-N-(propan-2-yl)acetamide], the IC50 lay in the range of 10 to 100 nM.
